Data from PMC12457685 (Scientific Reports, 2025).
Where “and” joins values, the source holds several entries; their conditions need not be identical. Equal values may be shown once. Non-standard residues stand in square brackets, D forms with d. Residues, ends and D or L forms follow the SMILES beside them. Pra = C#CC[C@H](N)C(=O)O

B1: ACE2 epitope a2 (peptide)
chain: QSTLAQMYPLYEIYNLTVKL

Columns and labels:
[1] = target: SARS-CoV-1 RBD (Severe acute respiratory syndrome coronavirus, UniProt P59594); assay: biochemical; format: binding
[2] = target: SARS-CoV-2 Alpha RBD (Severe acute respiratory syndrome coronavirus 2, UniProt P0DTC2); assay: biochemical; format: binding
[3] = target: SARS-CoV-1 spike RBD RBD (Severe acute respiratory syndrome coronavirus), P59594; assay: SPR; settings: modification not given

| Molecule | Kd [1] [nM] | kon ([1]; read-out: ka) [M⁻¹ s⁻¹] | Kd [2] [nM] | kon ([2]; read-out: ka) [M⁻¹ s⁻¹] | ka ([2]; spr) | Kd [3] [nM] |
| --- | --- | --- | --- | --- | --- | --- |
| C#CC[C@H](NC(=O)[C@H](CC(C)C)NC(=O)[C@H](CCCCN)NC(=O)[C@@H](NC(=O)[C@@H](NC(=O)[C@H](CC(C)C)NC(=O)[C@H](CC(N)=O)NC(=O)[C@H](Cc1ccc(O)cc1)NC(=O)[C@@H](NC(=O)[C@H](CCC(=O)O)NC(=O)[C@H](Cc1ccc(O)cc1)NC(=O)[C@H](CC(C)C)NC(=O)[C@@H]1CCCN1C(=O)[C@H](Cc1ccc(O)cc1)NC(=O)[C@H](CCSC)NC(=O)[C@H](CCC(N)=O)NC(=O)[C@H](C)NC(=O)[C@H](CC(C)C)NC(=O)[C@@H](NC(=O)[C@H](CO)NC(=O)[C@@H](N)CCC(N)=O)[C@@H](C)O)[C@@H](C)CC)[C@@H](C)O)C(C)C)C(N)=O [a2] (H-QSTLAQMYPLYEIYNLTVKL[Pra]-NH2) | 21 ± 5 | 85900 | 89 ± 5 | 59300 | 5,66e4 M-1s-1 and 6,08e4 M-1s-1 |  |
| B1 |  |  |  |  |  | 21 |
